Data on one molecule can be found in paper PMC6488552, “Pharmacokinetic and Pharmacodynamic Properties of a Micro-Dose Nasal Spray Formulation of Desmopressin (AV002) in Healthy Water-Loaded Subjects” (Pharmaceutical Research, 2019).

The nature of one series: clinical. The settings on record: human, in vivo. The procedure:
Each subject was dosed 4 times over 1 week with dosing occurring every other day. Doses of AV002 were administered at 0.5, 1.0, and 2.0 μg intranasally.
On Days 1, 3 and 5, subjects were dosed intranasally with escalating doses of AV002 nasal spray. On Day 7, 6 subjects were given a single SC bolus injection of desmopressin. Pharmacodynamic and pharmacokinetic metrics were evaluated at each dose level.
Plasma samples were analyzed using a validated radioimmunoassay assay (Celerion Switzerland AG) for desmopressin with a lower limit of quantification (LLOQ) of 2.5 pg/mL and upper limit of quantitation of 160 pg/mL. A 1.25 pg/mL calibration standard was included in the assay runs and concentrations between 1.25 and 2.5 pg/mL were reported out even though they were below the nominal LLOQ.
Pharmacokinetic variables were generally analyzed using model-independent methods. A single compartment model with first order absorption was used to qualitatively assess the impact of probable pharmacokinetic behavior of desmopressin when concentrations declined below the assay lower limit of quantification.
Pharmacokinetic calculations were performed using built in functions in the Excel 2003 component of Microsoft Office 2003 (Microsoft, Redmond, WA). The correctness of the calculation techniques was confirmed by comparison to output from WinNonlin 4.0.1 (Pharsight Corporation, Sunnyvale, CA). Summary statistics, graphs and figures were generated using built in functions and features of Excel 2003.
Pharmacokinetic samples were collected at pre-dose and 0.083, 0.167, 0.25, 0.50, 0.75, 1.05, 1.50, 2.05, 3.05, 4.05, and 6.05 h post dose each dosing day.

The conditions of series [1]: in vivo, cited from earlier work.

As usually defined, the half-life is how long it takes for the measured level to halve. As a reminder, the CL/F is the apparent clearance, not corrected for the fraction that reaches the circulation. Usually AUC(0-inf) stands for total exposure, with the tail of the curve extrapolated. The Tmax is the time from dosing to the highest level. On to `NC(=O)CC[C@@H]1NC(=O)[C@H](Cc2ccccc2)NC(=O)[C@H](Cc2ccc(O)cc2)NC(=O)CCSSC[C@@H](C(=O)N2CCC[C@H]2C(=O)N[C@H](CCCN=C(N)N)C(=O)NCC(N)=O)NC(=O)[C@H](CC(N)=O)NC1=O` [Desmopressin, desmopressin], for which, in “clinical”, the half-life is 90 min. Further, the “mean Tmax” value in the series “clinical” (sc) amounted to 53 min. Also, the CL/F in the series “clinical” (sc, 0.12 ug) is 227 mL/min. Moreover, in “clinical” (sc, 0.12 ug, SD), the total exposure AUC(0-inf) is 0.0102 ± 0.0049 ng·h/mL and the time to peak (Tmax) was determined as 53 ± 20.9 min. For the same molecule, the intranasal bioavailability in series [1] (human) is reported as 3.4%. The “relative bioavailability of intranasal administration, of SC injection” value in series [1] is “approximately 2%”.
